Source: patent publication US11643438B2, “Antimicrobial peptides and methods of use” (priority 2018, dated 2023)
Converted amounts (≈) assume the structure as drawn. Like-named read-outs stand apart in the source and are kept apart here. *1 amine or outer side, *2 acyl side, *3 side chain or, on linkers, in order; H or OH if unused. Where a SMILES comes first, the peptide text is derived from it. [ ]: non-standard residue; d: D form. X2 = CC[C@H](C)C[C@H](C)C[C@H](C)C[C@H](N[*:1])C(=O)[*:2]; X1 = CC[C@@H](C)[C@@H](O[*:1])C(=O)[*:2]; NMeVal(β-OH) = CN[C@H](C(=O)O)C(C)(C)O; aIle = CC[C@@H](C)[C@H](N)C(=O)O; NMeV = CN[C@H](C(=O)O)C(C)C; Sar = CNCC(=O)O

How the values were obtained:
Candida parapsilosis 9 = assay: Antifungal MIC80 assay, clinical yeast isolates
[1] = tested on: Aspergillus fumigatus NRRL6113; assay: Antifungal MIC80/MFC assay, fungal pathogen panel
Candida auris 386 = assay: Antifungal MIC80 assay, clinical yeast isolates
Candida parapsilosis 15 = assay: Antifungal MIC80 assay, clinical yeast isolates
[2] = tested on: Candida duobushaemulonii 394; assay: Antifungal MIC80 assay, clinical yeast isolates
Candida auris 384 = assay: Antifungal MIC80 assay, clinical yeast isolates
Candida albicans 1 = assay: Antifungal MIC80 assay, clinical yeast isolates
[3] = tested on: Mucor circinelloides 235C7; assay: Antifungal MIC80/MFC assay, fungal pathogen panel
Candida parapsilosis 18 = assay: Antifungal MIC80 assay, clinical yeast isolates
Candida lusitaniae 398 = assay: Antifungal MIC80 assay, clinical yeast isolates
[4] = tested on: Aspergillus flavus NRRL485; assay: Antifungal MIC80/MFC assay, fungal pathogen panel
[5] = tested on: Saccharomyces cerevisiae 400; assay: Antifungal MIC80 assay, clinical yeast isolates
Candida glabrata 16 = assay: Antifungal MIC80 assay, clinical yeast isolates
Candida tropicalis 13 = assay: Antifungal MIC80 assay, clinical yeast isolates
[6] = tested on: Curvularia lunata NRRL6409; assay: Antifungal MIC80/MFC assay, fungal pathogen panel
Candida parapsilosis 23 = assay: Antifungal MIC80 assay, clinical yeast isolates
Candida parapsilosis 7 = assay: Antifungal MIC80 assay, clinical yeast isolates
Candida glabrata 4 = assay: Antifungal MIC80 assay, clinical yeast isolates
Candida auris 385 = assay: Antifungal MIC80 assay, clinical yeast isolates
Candida auris 382 = assay: Antifungal MIC80 assay, clinical yeast isolates
[7] = tested on: Hamigera insecticola NRRL35442; assay: Antifungal MIC80/MFC assay, fungal pathogen panel
Candida albicans SC5314 = assay: Antifungal MIC80/MFC assay, fungal pathogen panel
Candida albicans 10 = assay: Antifungal MIC80 assay, clinical yeast isolates
Candida auris 381 = assay: Antifungal MIC80 assay, clinical yeast isolates
[8] = tested on: Saccharomyces cerevisiae 399; assay: Antifungal MIC80 assay, clinical yeast isolates
[9] = tested on: 44 clinical yeast isolates (Candida, Kodameae, Saccharomyces); assay: Antifungal MIC80 assay, summary over 44 clinical yeast isolates
[10] = tested on: Aspergillus terreus 191A6; assay: Antifungal MIC80/MFC assay, fungal pathogen panel
[11] = tested on: Candida albicans ATCC 10231; assay: Antifungal MIC80/MFC assay, fungal pathogen panel; settings: ATCC10231
Candida auris 388 = assay: Antifungal MIC80 assay, clinical yeast isolates
[12] = tested on: Candida tropicalis ATCC750 (Y-12699); assay: Antifungal MIC80/MFC assay, fungal pathogen panel
Candida glabrata 20 = assay: Antifungal MIC80 assay, clinical yeast isolates
Candida glabrata 2 = assay: Antifungal MIC80 assay, clinical yeast isolates
[13] = tested on: Candida krusei ATCC 6258 (Y-7179); assay: Antifungal MIC80/MFC assay, fungal pathogen panel
[14] = tested on: Aspergillus niger FGSC A732; assay: Antifungal MIC80/MFC assay, fungal pathogen panel
Candida albicans 3 = assay: Antifungal MIC80 assay, clinical yeast isolates
[15] = Candida tropicalis ATCC750 (Y-12699)
[16] = Candida krusei ATCC 6258 (Y-7179)

## C[C@@H]1[C@H](O)[C@@H](C)/C=C/C=C/C=C/C=C/C=C/C=C/C=C/[C@H](O[C@@H]2O[C@H](C)[C@@H](O)[C@H](N)[C@@H]2O)C[C@@H]2O[C@](O)(C[C@@H](O)C[C@@H](O)[C@H](O)CC[C@@H](O)C[C@@H](O)CC(=O)O[C@H]1C)C[C@H](O)[C@H]2C(=O)O [AMB, amphotericin B]
Candida parapsilosis 9; Candida parapsilosis 9
  MIC80: 2.5 µM (≈ 2.31 µg/mL)
[1]
  MFC: 10 µM (≈ 9.24 µg/mL)
  MIC80: 2.5 µM (≈ 2.31 µg/mL)
Candida auris 386; Candida auris 386, multidrug-resistant
  MIC80: 2.5 µM (≈ 2.31 µg/mL)
Candida parapsilosis 15; Candida parapsilosis 15
  MIC80: 2.5 µM (≈ 2.31 µg/mL)
[2]; Candida duobushaemulonii 394, multidrug-resistant
  MIC80: 5 µM (≈ 4.62 µg/mL)
Candida auris 384; Candida auris 384, multidrug-resistant
  MIC80: 2.5 µM (≈ 2.31 µg/mL)
Candida albicans 1
  MIC80: 0.6 µM (≈ 0.554 µg/mL)
[3]
  MFC: 1.25 µM (≈ 1.16 µg/mL)
  MIC80: 1.25 µM (≈ 1.16 µg/mL)
Candida parapsilosis 18; Candida parapsilosis 18
  MIC80: 1.25 µM (≈ 1.16 µg/mL)
Candida lusitaniae 398; Candida lusitaniae 398, multidrug-resistant
  MIC80: 0.6 µM (≈ 0.554 µg/mL)
[4]
  MFC: 10 µM (≈ 9.24 µg/mL)
  MIC80: 5 µM (≈ 4.62 µg/mL)
[5]; Saccharomyces cerevisiae 400, multidrug-resistant
  MIC80: 1.25 µM (≈ 1.16 µg/mL)
Candida glabrata 16; Candida glabrata 16
  MIC80: 0.15 µM (≈ 0.139 µg/mL)
Candida tropicalis 13
  MIC80: 0.15 µM (≈ 0.139 µg/mL)
[6]
  MFC: 2.5 µM (≈ 2.31 µg/mL)
  MIC80: 0.3 µM (≈ 0.277 µg/mL)
Candida parapsilosis 23; Candida parapsilosis 23
  MIC80: 1.25 µM (≈ 1.16 µg/mL)
Candida parapsilosis 7; Candida parapsilosis 7
  MIC80: 2.5 µM (≈ 2.31 µg/mL)
Candida glabrata 4; Candida glabrata 4
  MIC80: 1.25 µM (≈ 1.16 µg/mL)
Candida auris 385; Candida auris 385, multidrug-resistant
  MIC80: 2.5 µM (≈ 2.31 µg/mL)
Candida auris 382; Candida auris 382, multidrug-resistant
  MIC80: 1.25 µM (≈ 1.16 µg/mL)
[7]
  MFC: 10 µM (≈ 9.24 µg/mL)
  MIC80: 2.5 µM (≈ 2.31 µg/mL)
Candida albicans SC5314
  MFC: 2.5 µM (≈ 2.31 µg/mL)
  MIC80: 0.6 µM (≈ 0.554 µg/mL)
Candida albicans 10
  MIC80: 0.6 µM (≈ 0.554 µg/mL)
Candida auris 381; Candida auris 381, multidrug-resistant
  MIC80: 1.25 µM (≈ 1.16 µg/mL)
[8]; Saccharomyces cerevisiae 399, multidrug-resistant
  MIC80: 2.5 µM (≈ 2.31 µg/mL)
[9]; 44 clinical yeast isolates
  maximum MIC80 value: 2.5 µM
  median MIC80: 1.25 µM
  minimum MIC80 value: 0.15 µM
[10]
  MFC: 10 µM (≈ 9.24 µg/mL)
  MIC80: 2.5 µM (≈ 2.31 µg/mL)
[11]
  MFC: 2.5 µM (≈ 2.31 µg/mL)
  MIC80: 0.6 µM (≈ 0.554 µg/mL)
Candida auris 388; Candida auris 388, multidrug-resistant
  MIC80: 2.5 µM (≈ 2.31 µg/mL)
[12]; [15]
  MFC: 2.5 µM (≈ 2.31 µg/mL)
  MIC80: 1.25 µM (≈ 1.16 µg/mL)
Candida glabrata 20; Candida glabrata 20
  MIC80: 0.6 µM (≈ 0.554 µg/mL)
Candida glabrata 2; Candida glabrata 2
  MIC80: 0.3 µM (≈ 0.277 µg/mL)
[13]; [16]
  MFC: 5 µM (≈ 4.62 µg/mL)
  MIC80: 2.5 µM (≈ 2.31 µg/mL)
[14]; Aspergillus niger FGSC A732
  MFC: 2.5 µM (≈ 2.31 µg/mL)
  MIC80: 0.6 µM (≈ 0.554 µg/mL)
Candida albicans 3
  MIC80: 0.6 µM (≈ 0.554 µg/mL)

## CC[C@H](C)C[C@H](C)C[C@H](C)C[C@@H]1NC(=O)[C@H](C(C)C)N(C)C(=O)[C@@H]([C@H](C)CC)OC(=O)[C@H](C(C)(C)O)N(C)C(=O)[C@H](CC(C)C)NC(=O)[C@H](C(C)C)N(C)C(=O)[C@H]([C@H](C)CC)NC(=O)[C@@H]2CCCN2C(=O)CN(C)C1=O [Compound 1, persephacin] (cyclo(L[NMeVal(β-OH)][X1][NMeV][X2][Sar]P[aIle][NMeV]))
Candida parapsilosis 9; Lodderomyces parapsilosis, 9
  MIC80: 2.5 µM (≈ 2.69 µg/mL)
[1]
  MFC: 5 µM (≈ 5.38 µg/mL)
  MIC80: 2.5 µM (≈ 2.69 µg/mL)
Candida auris 386; Candidozyma auris, 386
  MIC80: 2.5 µM (≈ 2.69 µg/mL)
Candida parapsilosis 15; Lodderomyces parapsilosis, 15
  MIC80: 2.5 µM (≈ 2.69 µg/mL)
[2]; Candidozyma duobushaemuli, 394
  MIC80: 2.5 µM (≈ 2.69 µg/mL)
Candida auris 384; Candidozyma auris, 384
  MIC80: 2.5 µM (≈ 2.69 µg/mL)
Candida albicans 1
  MIC80: 2.5 µM (≈ 2.69 µg/mL)
[3]
  MFC: > 10 µM
  MIC80: > 10 µM
Candida parapsilosis 18; Lodderomyces parapsilosis, 18
  MIC80: 1.25 µM (≈ 1.34 µg/mL)
Candida lusitaniae 398; Clavispora lusitaniae, 398
  MIC80: 2.5 µM (≈ 2.69 µg/mL)
[4]
  MFC: > 10 µM
  MIC80: 1.25 µM (≈ 1.34 µg/mL)
[5]; Saccharomyces cerevisiae, 400
  MIC80: 2.5 µM (≈ 2.69 µg/mL)
Candida glabrata 16; Nakaseomyces glabratus, 16
  MIC80: 0.3 µM (≈ 0.323 µg/mL)
Candida tropicalis 13
  MIC80: 0.625 µM (≈ 0.672 µg/mL)
[6]
  MFC: 0.6 µM (≈ 0.645 µg/mL)
  MIC80: 0.3 µM (≈ 0.323 µg/mL)
Candida parapsilosis 23; Lodderomyces parapsilosis, 23
  MIC80: 2.5 µM (≈ 2.69 µg/mL)
Candida parapsilosis 7; Lodderomyces parapsilosis, 7
  MIC80: 2.5 µM (≈ 2.69 µg/mL)
Candida glabrata 4; Nakaseomyces glabratus, 4
  MIC80: 1.25 µM (≈ 1.34 µg/mL)
Candida auris 385; Candidozyma auris, 385
  MIC80: 2.5 µM (≈ 2.69 µg/mL)
Candida auris 382; Candidozyma auris, 382
  MIC80: 2.5 µM (≈ 2.69 µg/mL)
[7]
  MFC: 5 µM (≈ 5.38 µg/mL)
  MIC80: 0.6 µM (≈ 0.645 µg/mL)
Candida albicans SC5314
  MFC: 1.25 µM (≈ 1.34 µg/mL)
  MIC80: 0.3 µM (≈ 0.323 µg/mL)
Candida albicans 10
  MIC80: 2.5 µM (≈ 2.69 µg/mL)
Candida auris 381; Candidozyma auris, 381
  MIC80: 2.5 µM (≈ 2.69 µg/mL)
[8]; Saccharomyces cerevisiae, 399
  MIC80: 2.5 µM (≈ 2.69 µg/mL)
[9]; read-out: maximum MIC80 value
  MIC80: 5 µM (≈ 5.38 µg/mL)
[9]; read-out: median MIC80
  MIC80: 2.5 µM (≈ 2.69 µg/mL)
[9]; read-out: minimum MIC80 value
  MIC80: 0.15 µM (≈ 0.161 µg/mL)
[10]
  MFC: > 10 µM
  MIC80: 2.5 µM (≈ 2.69 µg/mL)
[11]
  MFC: 1.25 µM (≈ 1.34 µg/mL)
  MIC80: 0.6 µM (≈ 0.645 µg/mL)
Candida auris 388; Candidozyma auris, 388
  MIC80: 2.5 µM (≈ 2.69 µg/mL)
[12]; Candida tropicalis, ATCC750
  MFC: 2.5 µM (≈ 2.69 µg/mL)
  MIC80: 1.25 µM (≈ 1.34 µg/mL)
Candida glabrata 20; Nakaseomyces glabratus, 20
  MIC80: 0.3 µM (≈ 0.323 µg/mL)
Candida glabrata 2; Nakaseomyces glabratus, 2
  MIC80: 0.15 µM (≈ 0.161 µg/mL)
[13]; Pichia kudriavzevii, ATCC6258
  MFC: 2.5 µM (≈ 2.69 µg/mL)
  MIC80: 1.25 µM (≈ 1.34 µg/mL)
[14]; Aspergillus niger, FGSCA732
  MFC: > 10 µM
  MIC80: 1.25 µM (≈ 1.34 µg/mL)
Candida albicans 3
  MIC80: 2.5 µM (≈ 2.69 µg/mL)
